Where two headings read alike, the source gives them in different places. Starred links: 1 amine or outer side, 2 acyl side, 3 side chain; linkers in the order of their positions; H or OH if unused. Non-standard residues stand in square brackets, D forms with d. Residues, ends and D or L forms follow the SMILES beside them. *: point of attachment. X4 = Cc1cc(F)cc(-c2cnc(NCCNC(=O)CCOCCOCCOCCOCCC(=O)*)c(-c3nc4ccc(Cl)cc4[nH]3)c2N2CCC(N)CC2)c1; PABC(3-O-βDGlc) = O=C(OCc1ccc(N[*:1])c(O[C@@H]2O[C@H](CO)[C@@H](O)[C@H](O)[C@H]2O)c1)[*:2]; X1 = Cc1cc(F)cc(-c2cnc(NCCNC(=O)CCOCCC(=O)*)c(-c3nc4ccc(Cl)cc4[nH]3)c2N2CCC(N)CC2)c1; Dolaproine = CO[C@@H]([C@@H]1CCCN1)[C@@H](C)C(=O)O; Dil = CC[C@H](C)[C@H](NC)[C@@H](CC(=O)O)OC; PABC = O=C(OCc1ccc(N[*:1])cc1)[*:2]; X2 = C[C@@H](N*)[C@@H](O)c1ccccc1; Cit = NC(=O)NCCC[C@H](N)C(=O)O; NMeV = CN[C@H](C(=O)O)C(C)C
Legend:
Assay type in all cases: cell-based
[1] = molecular target: T1, human somatostatin receptor subtype 2 (Homo sapiens, UniProt P30874); assay: Functional cAMP assay for SSTR2 agonists (HTRF) in CHO-K1 cells; details: CHO-K1 cells stably expressing human SST2, 20 min
T1 construct: expressed in transfected cells
How it was run: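 CHO-K1 cells stably expressing receptor, plated 4 days before assay, treated 20 min at 37° C. with compound (typically 0-10,000 nM final) plus IBMX and 1.6 μM NKH477 to raise cAMP. HTRF read, 665/620 nm ratio; cAMP from standard curve, EC50 fitted.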

SST2 = molecular target: T2, SST2 (Homo sapiens, UniProt P30874); assay: PathHunter CHO-K1 SST2 internalization assay; details: PathHunter CHO-K1 SST2, 90 min
T2 construct: host or cells: PathHunter CHO-K1 SST2 cells
How it was run: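 PathHunter CHO-K1 SST2 cells, seeded and grown 48 h, were exposed to 11-point 1:3 dilutions of SMDC (top final 10 uM) for 90 min at 37 C, 5% CO2. Beta-Glo luminescence was read after 60 min at room temperature. Background-corrected duplicate means were fitted by four-parameter nonlinear regression to give IC50.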

[2] = system: NCI-H524 (ATCC) human small cell lung cancer cells
How it was run: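 NCI-H524 cells (5,000/well) were exposed 24 h after plating to SMDC for 2 h, 11-point two-fold series from 1 uM. After washout they grew a further 70 h. Proliferation was read by CellTiter-Glo luminescence, % inhibition taken vs untreated control, and IC50 fitted by four-parameter nonlinear regression.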

[3] = 2 h treatment, washout, additional 70 h, read-out: H524 EC50

T1 sequence (P30874 whole entry): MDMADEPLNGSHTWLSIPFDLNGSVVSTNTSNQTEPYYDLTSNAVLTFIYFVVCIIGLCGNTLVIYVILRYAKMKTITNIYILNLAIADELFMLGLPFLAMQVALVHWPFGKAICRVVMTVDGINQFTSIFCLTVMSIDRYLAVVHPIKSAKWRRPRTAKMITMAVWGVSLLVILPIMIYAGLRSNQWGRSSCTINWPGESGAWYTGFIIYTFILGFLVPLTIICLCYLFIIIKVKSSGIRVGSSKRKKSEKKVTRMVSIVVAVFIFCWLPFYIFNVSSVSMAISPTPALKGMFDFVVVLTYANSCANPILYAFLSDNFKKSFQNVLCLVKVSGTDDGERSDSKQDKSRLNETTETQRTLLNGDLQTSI
T2 sequence (P30874 whole entry): as above

SMILES	EC50 ([1]; read-out: hSST2 cAMP Avg EC50) [nM]	EC50 (SST2; read-out: Internalization EC50) [nM]	EC50 ([2]; 2 h) [nM]	EC50 ([1]; hSST2 cAMP Avg EC50 (nM)) [nM]	EC50 (SST2; Internalization EC50 (nM)) [nM]	EC50 [2, 3] [nM]
CC[C@H](C)[C@@H]([C@@H](CC(=O)N1CCC[C@H]1[C@H](OC)[C@@H](C)C(=O)N[C@H](C)[C@@H](O)c1ccccc1)OC)N(C)C(=O)[C@@H](NC(=O)[C@H](C(C)C)N(C)C(=O)OCc1ccc(NC(=O)[C@H](CCCNC(N)=O)NC(=O)[C@@H](NC(=O)CCOCCC(=O)NCCNc2ncc(-c3cc(C)cc(F)c3)c(N3CCC(N)CC3)c2-c2nc3ccc(Cl)cc3[nH]2)C(C)C)cc1C(=O)NCC(N)=O)C(C)C [Compound 125]	0.17	3.9	3.4			
CC[C@H](C)[C@@H]([C@@H](CC(=O)N1CCC[C@H]1[C@H](OC)[C@@H](C)C(=O)N[C@H](C)[C@@H](O)c1ccccc1)OC)N(C)C(=O)[C@@H](NC(=O)[C@H](C(C)C)N(C)C(=O)OCc1ccc(NC(=O)[C@H](CCCNC(N)=O)NC(=O)[C@@H](NC(=O)[C@H](CCC(=O)O)NC(=O)CCOCCC(=O)NCCNc2ncc(-c3cc(C)cc(F)c3)c(N3CCC(N)CC3)c2-c2nc3ccc(Cl)cc3[nH]2)C(C)C)c(O[C@@H]2O[C@H](CO)[C@@H](O)[C@H](O)[C@H]2O)c1)C(C)C [Compound 135] (X1-EV[Cit][PABC(3-O-βDGlc)][NMeV]V[Dil][Dolaproine]-X2)	0.15	2.8	38			
CCC(C)C(C(CC(=O)N1CCCC1C(OC)C(C)C(=O)NC(C)C(O)c1ccccc1)OC)N(C)C(=O)C(NC(=O)C(C(C)C)N(C)C(=O)OCc1ccc(NC(=O)[C@H](CCCNC(N)=O)NC(=O)[C@@H](NC(=O)CCOCCC(=O)NCCNc2ncc(-c3cc(C)cc(F)c3)c(N3CCC(N)CC3)c2-c2nc3ccc(C(N)=O)cc3[nH]2)C(C)C)cc1)C(C)C (stereo in doubt) [Compound 28]	2	704	1290			
CC[C@H](C)[C@@H]([C@@H](CC(=O)N1CCC[C@H]1[C@H](OC)[C@@H](C)C(=O)N[C@H](C)[C@@H](O)c1ccccc1)OC)N(C)C(=O)[C@@H](NC(=O)[C@H](C(C)C)N(C)C(=O)OCc1ccc(NC(=O)[C@H](CCCNC(N)=O)NC(=O)[C@@H](NC(=O)CCOCCOCCOCCC(=O)NCCNc2ncc(-c3cc(C)cc(F)c3)c(N3CCC(N)CC3)c2-c2nc3ccc(Cl)cc3[nH]2)C(C)C)c(O[C@@H]2O[C@H](C(=O)O)[C@@H](O)[C@H](O)[C@H]2O)c1)C(C)C [Compound 138]	0.16	5.2	12			
CC[C@@]1(O)C(=O)OCc2c1cc1n(c2=O)Cc2c-1nc1cc(F)c(C)c3c1c2[C@@H](NC(=O)CCOCCC(=O)NCCNc1ncc(-c2cc(C)cc(F)c2)c(N2CCC(N)CC2)c1-c1nc2ccc(Cl)cc2[nH]1)CC3 [Compound 78, N-{2-[4-(4-amino-1-piperidyl)-3-(6-chloro-1H-1,3-benzimidazol-2-yl)-5-(3-fluoro-5-tolyl)-2-pyridylamino]ethyl}3-(2-{N-(10S,23S)-10-ethyl-18-fluoro-10-hydroxy-19-methyl-5,9-dioxo-8-oxa-4,15-diazahexacyclo[14.7.1.0^2,^14.0^4,^13.0^6,^11.0^20,^24]tetracosa-1,6(11),12,14,16,18,20(24)-heptaen-23-ylcarbamoyl}ethoxy)propionamide]				0.23	0.77	170
CC[C@@]1(O)C(=O)OCc2c1cc1n(c2=O)Cc2c-1nc1cc(F)c(C)c3c1c2[C@@H](NC(=O)OCc1ccc(NC(=O)[C@H](CCCNC(N)=O)NC(=O)[C@@H](NC(=O)[C@H](CCC(=O)O)NC(=O)CCOCCC(=O)NCCNc2ncc(-c4cc(C)cc(F)c4)c(N4CCC(N)CC4)c2-c2nc4ccc(Cl)cc4[nH]2)C(C)C)cc1C(=O)NCCN)CC3 [Compound 94]				0.16	2.4	260
CC[C@H](C)[C@@H]([C@@H](CC(=O)N1CCC[C@H]1[C@H](OC)[C@@H](C)C(=O)N[C@H](C)[C@@H](O)c1ccccc1)OC)N(C)C(=O)[C@@H](NC(=O)[C@H](C(C)C)N(C)C(=O)OCc1ccc(NC(=O)[C@H](C)NC(=O)[C@@H](NC(=O)[C@H](CCC(N)=O)NC(=O)CCOCCC(=O)NCCNc2ncc(-c3cc(C)cc(F)c3)c(N3CCC(N)CC3)c2-c2nc3ccc(Cl)cc3[nH]2)C(C)C)cc1C(=O)NCCN)C(C)C [Compound 118]	0.068	3.8	0.65			
CC[C@@]1(O)C(=O)OCc2c1cc1n(c2=O)Cc2c-1nc1cc(F)c(C)c3c1c2[C@@H](NC(=O)OCc1ccc(NC(=O)[C@H](CCCNC(N)=O)NC(=O)[C@@H](NC(=O)CCOCCC(=O)NCCNc2ncc(-c4cc(C)cc(F)c4)c(N4CCC(N)CC4)c2-c2nc4ccc(Cl)cc4[nH]2)C(C)C)c(O[C@@H]2O[C@H](C(=O)O)[C@@H](O)[C@H](O)[C@H]2O)c1)CC3 [Compound 126]				0.29	3.4	100
CC[C@H](C)[C@@H]([C@@H](CC(=O)N1CCC[C@H]1[C@H](OC)[C@@H](C)C(=O)N[C@H](C)[C@@H](O)c1ccccc1)OC)N(C)C(=O)[C@@H](NC(=O)[C@H](C(C)C)N(C)C(=O)OCc1ccc(NC(=O)[C@H](CCCNC(N)=O)NC(=O)[C@@H](NC(=O)CCOCCC(=O)NCCNc2ncc(-c3cc(C)cc(F)c3)c(N3CCC(N)CC3)c2-c2nc3ccc(Cl)cc3[nH]2)C(C)C)c(O[C@@H]2O[C@H](CO)[C@@H](O)[C@H](O)[C@H]2O)c1)C(C)C [Compound 134]	0.18	4.6	3.8			
CC[C@H](C)[C@@H]([C@@H](CC(=O)N1CCC[C@H]1[C@H](OC)[C@@H](C)C(=O)N[C@H](C)[C@@H](O)c1ccccc1)OC)N(C)C(=O)[C@@H](NC(=O)[C@H](C(C)C)N(C)C(=O)OCc1ccc(NC(=O)[C@H](CCCNC(N)=O)NC(=O)[C@@H](NC(=O)CN2CCN(CC(=O)O)CCN(CC(=O)NCCNc3ncc(-c4cc(C)cc(F)c4)c(N4CCC(N)CC4)c3-c3nc4ccc(Cl)cc4[nH]3)CC2)C(C)C)cc1)C(C)C [Compound 33]	0.63	34.9	274			
CC[C@H](C)[C@@H]([C@@H](CC(=O)N1CCC[C@H]1[C@H](OC)[C@@H](C)C(=O)N[C@H](C)[C@@H](O)c1ccccc1)OC)N(C)C(=O)[C@@H](NC(=O)[C@H](C(C)C)N(C)C(=O)OCc1ccc(O[C@@H]2O[C@H](C(=O)O)[C@@H](O)[C@H](O)[C@H]2O)c(NC(=O)[C@H](CCCNC(N)=O)NC(=O)[C@@H](NC(=O)CCOCCC(=O)NCCNc2ncc(-c3cc(C)cc(F)c3)c(N3CCC(N)CC3)c2-c2nc3ccc(Cl)cc3[nH]2)C(C)C)c1)C(C)C [Compound 147]	0.14	2.5	3.2			
CC[C@H](C)[C@@H]([C@@H](CC(=O)N1CCC[C@H]1[C@H](OC)[C@@H](C)C(=O)N[C@H](C)[C@@H](O)c1ccccc1)OC)N(C)C(=O)[C@@H](NC(=O)[C@H](C(C)C)N(C)C(=O)OCc1ccc(NC(=O)[C@H](CCCNC(N)=O)NC(=O)[C@@H](NC(=O)[C@H](CCC(=O)O)NC(=O)[C@H](CCC(=O)O)NC(=O)CCOCCOCCOCCOCCC(=O)NCCNc2ncc(-c3cc(C)cc(F)c3)c(N3CCC(N)CC3)c2-c2nc3ccc(Cl)cc3[nH]2)C(C)C)cc1)C(C)C [Compound 110] (X4-EEV[Cit][PABC][NMeV]V[Dil][Dolaproine]-X2)	0.57	13	110			
CC[C@H](C)[C@@H]([C@@H](CC(=O)N1CCC[C@H]1[C@H](OC)[C@@H](C)C(=O)N[C@H](C)[C@@H](O)c1ccccc1)OC)N(C)C(=O)[C@@H](NC(=O)[C@H](C(C)C)N(C)C(=O)OCc1ccc(NC(=O)[C@H](C)NC(=O)[C@@H](NC(=O)CCNCCC(=O)NCCNc2ncc(-c3cc(C)cc(F)c3)c(N3CCC(N)CC3)c2-c2nc3ccc(Cl)cc3[nH]2)C(C)C)c(O[C@@H]2O[C@H](C(=O)O)[C@@H](O)[C@H](O)[C@H]2O)c1)C(C)C [Compound 155]	0.24	29	71			
CC[C@H](C)[C@@H]([C@@H](CC(=O)N1CCC[C@H]1[C@H](OC)[C@@H](C)C(=O)N[C@H](C)[C@@H](O)c1ccccc1)OC)N(C)C(=O)[C@@H](NC(=O)[C@H](C(C)C)N(C)C(=O)OCc1ccc(NC(=O)[C@H](CCCNC(N)=O)NC(=O)[C@@H](NC(=O)[C@H](CCC(=O)O)NC(=O)CCOCCC(=O)NCCNc2ncc(-c3cc(C)cc(F)c3)c(N3CCC(N)CC3)c2-c2nc3ccc(Cl)cc3[nH]2)C(C)C)cc1)C(C)C [Compound 36] (X1-EV[Cit][PABC][NMeV]V[Dil][Dolaproine]-X2)	0.25	12.9	44.1			

Reference: patent publication US12134610B2, “Somatostatin subtype-2 receptor (SST2R) targeted therapeutics and uses thereof” (priority 2022, dated 2024)
